Activity calls are given as the source filed them. No rule for the calls is given here.
Tested on: CCRIS mutagenicity, Ames/micronucleus/aberration tests
Experiment: CCRIS mutagenicity studies

**Q.** Which results are given for O=C(O)CN(CCN(CC(=O)O)CC(=O)O)CC(=O)O?
**A.** mutagenic call (Test System: AMES SALMONELLA TYPHIMURIUM, Strain/Indicator: TA97, Metabolic Activation: HAMSTER, LIVER, S-9, AROCLOR 1254 (10%), Method: PREINCUBATION): inactive; negative; mutagenic call (Test System: AMES SALMONELLA TYPHIMURIUM, Strain/Indicator: TA97, Metabolic Activation: HAMSTER, LIVER, S-9, AROCLOR 1254 (30%), Method: PREINCUBATION): inactive; negative; mutagenic call (Test System: AMES SALMONELLA TYPHIMURIUM, Strain/Indicator: TA97, Metabolic Activation: NONE, Method: PREINCUBATION): inactive; negative; mutagenic call (Test System: AMES SALMONELLA TYPHIMURIUM, Strain/Indicator: TA97, Metabolic Activation: RAT, LIVER, S-9, AROCLOR 1254 (10%), Method: PREINCUBATION): inactive; negative; mutagenic call (Test System: AMES SALMONELLA TYPHIMURIUM, Strain/Indicator: TA97, Metabolic Activation: RAT, LIVER, S-9, AROCLOR 1254 (30%), Method: PREINCUBATION): inactive; negative; mutagenic call (Test System: AMES SALMONELLA TYPHIMURIUM, Strain/Indicator: TA97, Metabolic Activation: S-9, Method: PREINCUBATION): inactive; negative; mutagenic call (Test System: AMES SALMONELLA TYPHIMURIUM, Strain/Indicator: TA98, Metabolic Activation: HAMSTER, LIVER, S-9, AROCLOR 1254 (10%), Method: PREINCUBATION): inactive; negative; mutagenic call (Test System: AMES SALMONELLA TYPHIMURIUM, Strain/Indicator: TA98, Metabolic Activation: HAMSTER, LIVER, S-9, AROCLOR 1254 (30%), Method: PREINCUBATION): inactive; negative; mutagenic call (Test System: AMES SALMONELLA TYPHIMURIUM, Strain/Indicator: TA98, Metabolic Activation: HAMSTER, LIVER, S-9, AROCLOR 1254, Method: STANDARD PLATE): inactive; negative; mutagenic call (Test System: AMES SALMONELLA TYPHIMURIUM, Strain/Indicator: TA98, Metabolic Activation: NONE, Method: PREINCUBATION): inactive; negative; mutagenic call (Test System: AMES SALMONELLA TYPHIMURIUM, Strain/Indicator: TA98, Metabolic Activation: NONE, Method: STANDARD PLATE): inactive; negative; mutagenic call (Test System: AMES SALMONELLA TYPHIMURIUM, Strain/Indicator: TA98, Metabolic Activation: RAT LIVER S-9, PHENOBARBITAL AND BETA-NAPHTHOFLAVONE, Method: PREINCUBATION): inactive; negative; mutagenic call (Test System: AMES SALMONELLA TYPHIMURIUM, Strain/Indicator: TA98, Metabolic Activation: RAT, LIVER, S-9, AROCLOR 1254 (10%), Method: PREINCUBATION): inactive; negative; mutagenic call (Test System: AMES SALMONELLA TYPHIMURIUM, Strain/Indicator: TA98, Metabolic Activation: RAT, LIVER, S-9, AROCLOR 1254 (30%), Method: PREINCUBATION): inactive; negative; mutagenic call (Test System: AMES SALMONELLA TYPHIMURIUM, Strain/Indicator: TA98, Metabolic Activation: RAT, LIVER, S-9, AROCLOR 1254, Method: STANDARD PLATE): inactive; negative; mutagenic call (Test System: AMES SALMONELLA TYPHIMURIUM, Strain/Indicator: TA100, Metabolic Activation: HAMSTER, LIVER, S-9, AROCLOR 1254 (10%), Method: PREINCUBATION): inactive; negative; mutagenic call (Test System: AMES SALMONELLA TYPHIMURIUM, Strain/Indicator: TA100, Metabolic Activation: HAMSTER, LIVER, S-9, AROCLOR 1254 (30%), Method: PREINCUBATION): inactive; negative; mutagenic call (Test System: AMES SALMONELLA TYPHIMURIUM, Strain/Indicator: TA100, Metabolic Activation: HAMSTER, LIVER, S-9, AROCLOR 1254, Method: STANDARD PLATE): inactive; negative; mutagenic call (Test System: AMES SALMONELLA TYPHIMURIUM, Strain/Indicator: TA100, Metabolic Activation: NONE, Method: PREINCUBATION): inactive; negative; mutagenic call (Test System: AMES SALMONELLA TYPHIMURIUM, Strain/Indicator: TA100, Metabolic Activation: NONE, Method: STANDARD PLATE): inactive; negative; mutagenic call (Test System: AMES SALMONELLA TYPHIMURIUM, Strain/Indicator: TA100, Metabolic Activation: RAT LIVER S-9, PHENOBARBITAL AND BETA-NAPHTHOFLAVONE, Method: PREINCUBATION): inactive; negative; mutagenic call (Test System: AMES SALMONELLA TYPHIMURIUM, Strain/Indicator: TA100, Metabolic Activation: RAT, LIVER, S-9, AROCLOR 1254 (10%), Method: PREINCUBATION): inactive; negative; mutagenic call (Test System: AMES SALMONELLA TYPHIMURIUM, Strain/Indicator: TA100, Metabolic Activation: RAT, LIVER, S-9, AROCLOR 1254 (30%), Method: PREINCUBATION): inactive; negative; mutagenic call (Test System: AMES SALMONELLA TYPHIMURIUM, Strain/Indicator: TA100, Metabolic Activation: RAT, LIVER, S-9, AROCLOR 1254, Method: STANDARD PLATE): inactive; negative; mutagenic call (Test System: AMES SALMONELLA TYPHIMURIUM, Strain/Indicator: TA102, Metabolic Activation: NONE, Method: PREINCUBATION): inactive; negative; mutagenic call (Test System: AMES SALMONELLA TYPHIMURIUM, Strain/Indicator: TA102, Metabolic Activation: RAT LIVER S-9, PHENOBARBITAL AND BETA-NAPHTHOFLAVONE, Method: PREINCUBATION): inactive; negative; mutagenic call (Test System: AMES SALMONELLA TYPHIMURIUM, Strain/Indicator: TA102, Metabolic Activation: S-9, Method: PREINCUBATION): inactive; negative; mutagenic call (Test System: AMES SALMONELLA TYPHIMURIUM, Strain/Indicator: TA104, Metabolic Activation: NONE, Method: PREINCUBATION): inactive; negative; mutagenic call (Test System: AMES SALMONELLA TYPHIMURIUM, Strain/Indicator: TA104, Metabolic Activation: RAT LIVER S-9, PHENOBARBITAL AND BETA-NAPHTHOFLAVONE, Method: PREINCUBATION): inactive; negative; mutagenic call (Test System: AMES SALMONELLA TYPHIMURIUM, Strain/Indicator: TA1535, Metabolic Activation: HAMSTER, LIVER, S-9, AROCLOR 1254 (10%), Method: PREINCUBATION): inactive; negative; mutagenic call (Test System: AMES SALMONELLA TYPHIMURIUM, Strain/Indicator: TA1535, Metabolic Activation: HAMSTER, LIVER, S-9, AROCLOR 1254 (30%), Method: PREINCUBATION): inactive; negative; mutagenic call (Test System: AMES SALMONELLA TYPHIMURIUM, Strain/Indicator: TA1535, Metabolic Activation: HAMSTER, LIVER, S-9, AROCLOR 1254, Method: STANDARD PLATE): inactive; negative; mutagenic call (Test System: AMES SALMONELLA TYPHIMURIUM, Strain/Indicator: TA1535, Metabolic Activation: NONE, Method: PREINCUBATION): inactive; negative; mutagenic call (Test System: AMES SALMONELLA TYPHIMURIUM, Strain/Indicator: TA1535, Metabolic Activation: NONE, Method: STANDARD PLATE): inactive; negative; mutagenic call (Test System: AMES SALMONELLA TYPHIMURIUM, Strain/Indicator: TA1535, Metabolic Activation: RAT LIVER S-9, PHENOBARBITAL AND BETA-NAPHTHOFLAVONE, Method: PREINCUBATION): inactive; negative; mutagenic call (Test System: AMES SALMONELLA TYPHIMURIUM, Strain/Indicator: TA1535, Metabolic Activation: RAT, LIVER, S-9, AROCLOR 1254 (10%), Method: PREINCUBATION): inactive; negative; mutagenic call (Test System: AMES SALMONELLA TYPHIMURIUM, Strain/Indicator: TA1535, Metabolic Activation: RAT, LIVER, S-9, AROCLOR 1254 (30%), Method: PREINCUBATION): inactive; negative; mutagenic call (Test System: AMES SALMONELLA TYPHIMURIUM, Strain/Indicator: TA1535, Metabolic Activation: RAT, LIVER, S-9, AROCLOR 1254, Method: STANDARD PLATE): inactive; negative; mutagenic call (Test System: AMES SALMONELLA TYPHIMURIUM, Strain/Indicator: TA1537, Metabolic Activation: HAMSTER, LIVER, S-9, AROCLOR 1254, Method: STANDARD PLATE): inactive; negative; mutagenic call (Test System: AMES SALMONELLA TYPHIMURIUM, Strain/Indicator: TA1537, Metabolic Activation: NONE, Method: PREINCUBATION): inactive; negative; mutagenic call (Test System: AMES SALMONELLA TYPHIMURIUM, Strain/Indicator: TA1537, Metabolic Activation: NONE, Method: STANDARD PLATE): inactive; negative; mutagenic call (Test System: AMES SALMONELLA TYPHIMURIUM, Strain/Indicator: TA1537, Metabolic Activation: RAT LIVER S-9, PHENOBARBITAL AND BETA-NAPHTHOFLAVONE, Method: PREINCUBATION): inactive; negative; mutagenic call (Test System: AMES SALMONELLA TYPHIMURIUM, Strain/Indicator: TA1537, Metabolic Activation: RAT, LIVER, S-9, AROCLOR 1254, Method: STANDARD PLATE): inactive; negative; mutagenic call (Test System: AMES SALMONELLA TYPHIMURIUM, Strain/Indicator: TA1538, Metabolic Activation: HAMSTER, LIVER, S-9, AROCLOR 1254, Method: STANDARD PLATE): inactive; negative; mutagenic call (Test System: AMES SALMONELLA TYPHIMURIUM, Strain/Indicator: TA1538, Metabolic Activation: NONE, Method: STANDARD PLATE): inactive; negative; mutagenic call (Test System: AMES SALMONELLA TYPHIMURIUM, Strain/Indicator: TA1538, Metabolic Activation: RAT, LIVER, S-9, AROCLOR 1254, Method: STANDARD PLATE): inactive; negative; mutagenic call (Test System: E. COLI, Strain/Indicator: WP2 UVRA, Metabolic Activation: HAMSTER, LIVER, S-9, AROCLOR 1254, Method: STANDARD PLATE): inactive; negative; mutagenic call (Test System: E. COLI, Strain/Indicator: WP2 UVRA, Metabolic Activation: HAMSTER, LIVER, S-9, Method: STANDARD PLATE): inactive; negative; mutagenic call (Test System: E. COLI, Strain/Indicator: WP2 UVRA, Metabolic Activation: MOUSE, LIVER, S-9, AROCLOR 1254, Method: STANDARD PLATE): inactive; negative; mutagenic call (Test System: E. COLI, Strain/Indicator: WP2 UVRA, Metabolic Activation: MOUSE, LIVER, S-9, Method: STANDARD PLATE): inactive; negative; mutagenic call (Test System: E. COLI, Strain/Indicator: WP2 UVRA, Metabolic Activation: NONE, Method: STANDARD PLATE): inactive; negative; mutagenic call (Test System: E. COLI, Strain/Indicator: WP2 UVRA, Metabolic Activation: RAT, LIVER, S-9, AROCLOR 1254, Method: STANDARD PLATE): inactive; negative; mutagenic call (Test System: E. COLI, Strain/Indicator: WP2 UVRA, Metabolic Activation: RAT, LIVER, S-9, Method: STANDARD PLATE): inactive; negative; mutagenic call (Test System: E.COLI, Strain/Indicator: WP2UVRA/PKM101, Metabolic Activation: NONE, Method: PREINCUBATION): inactive; negative; mutagenic call (Test System: E.COLI, Strain/Indicator: WP2UVRA/PKM101, Metabolic Activation: RAT LIVER S-9, PHENOBARBITAL AND BETA-NAPHTHOFLAVONE, Method: PREINCUBATION): inactive; negative; mutagenic call (Test System: E.COLI, Strain/Indicator: WP2UVRA, Metabolic Activation: NONE, Method: PREINCUBATION): inactive; negative; mutagenic call (Test System: E.COLI, Strain/Indicator: WP2UVRA, Metabolic Activation: RAT LIVER S-9, PHENOBARBITAL AND BETA-NAPHTHOFLAVONE, Method: PREINCUBATION): inactive; negative; mutagenic call (Test System: MOUSE LYMPHOMA, Strain/Indicator: L5178Y (TK+/TK-), Metabolic Activation: NONE, Method: SUSPENSION/PLATE): active; positive; mutagenic call (Test System: Mouse lymphoma, Strain/Indicator: L5178Y (tk+/tk-), Metabolic Activation: None, Method: Suspension/plate): inactive; negative; mutagenic call (Test System: Mouse lymphoma, Strain/Indicator: L5178Y (tk+/tk-), Metabolic Activation: Rat, Liver, S-9, Aroclor 1254, Method: Suspension/plate): inactive; negative

Source: PubChem BioAssay AID1259407 (Chemical Carcinogenesis Research Information System (CCRIS), 2018)
